From paper PMC6691788, “Design and synthesis of phthalazine-based compounds as potent anticancer agents with potential antiangiogenic activity via VEGFR-2 inhibition” (Journal of Enzyme Inhibition and Medicinal Chemistry, 2019)
Like-named read-outs stand apart in the source and are kept apart here.

Legend:
NCI-H23 = assay: NCI 60 cell panel SRB screen; type: cell-based; settings: Homo sapiens
ACHN = assay: NCI 60 cell panel SRB screen; type: cell-based; settings: Homo sapiens
T-47D = assay: NCI 60 cell panel SRB screen; type: cell-based; settings: Homo sapiens, T47D
HOP-62 = assay: NCI 60 cell panel SRB screen; type: cell-based; settings: Homo sapiens
OVCAR-8 = assay: NCI 60 cell panel SRB screen; type: cell-based; settings: Homo sapiens
RPMI-8226 = assay: NCI 60 cell panel SRB screen; type: cell-based; settings: Homo sapiens
A549/ATCC = assay: NCI 60 cell panel SRB screen; type: cell-based; settings: Homo sapiens
NCI-H226 = assay: NCI 60 cell panel SRB screen; type: cell-based; settings: Homo sapiens
SNB-19 = assay: NCI 60 cell panel SRB screen; type: cell-based; settings: Homo sapiens
UO-31 = assay: NCI 60 cell panel SRB screen; type: cell-based; settings: Homo sapiens
MDA-MB 231/ATCC = assay: NCI 60 cell panel SRB screen; type: cell-based; settings: Homo sapiens
NCI-H522 = assay: NCI 60 cell panel SRB screen; type: cell-based; settings: Homo sapiens
MCF7 = assay: NCI 60 cell panel SRB screen; type: cell-based; settings: Homo sapiens
full NCI 60 cell panel = assay: NCI 60 cell panel SRB screen, whole panel; type: cell-based, human; settings: Homo sapiens, 60 cell; for inhibition at 10 µM: single dose 10 µM
K-562 = assay: NCI 60 cell panel SRB screen; type: cell-based; settings: Homo sapiens, K562
SF-295 = assay: NCI 60 cell panel SRB screen; type: cell-based; settings: Homo sapiens
PC-3 = assay: NCI 60 cell panel SRB screen; type: cell-based; settings: Homo sapiens
NCI/ADR-RES = assay: NCI 60 cell panel SRB screen; type: cell-based; settings: Homo sapiens
HCC-2998 = assay: NCI 60 cell panel SRB screen; type: cell-based; settings: Homo sapiens
[1] = 5 log dose, 48 h, read-out: LC50 (the source's name)
[2] = single dose 10 μM, read-out: percent cell growth promotion

For `COc1cccc(NCc2nnc(Nc3ccc(Cl)cc3)c3ccccc23)c1` [Compound 16d, N-(4-Chlorophenyl)-4-((3-methoxyphenylamino)methyl)phthalazin-1-amine], the GI50 (NCI-H23; NCI-H23, 5 log dose) was 1.22 µM, the IC (TGI) (NCI-H23; NCI-H23, 5 log dose) was 6.74 µM and the CC50 (NCI-H23; NCI-H23, 5 log dose, 48 h, read-out: LC50 (the source's name)) was 24.6 µM. The activity at 10 µM (NCI-H23; NCI-H23, single dose 10 μM, read-out: percent cell growth promotion) was 2.05%, the GI50 (ACHN; 5 log dose) was 1.56 µM and the IC (TGI) (ACHN; 5 log dose) was 24.4 µM. For the same compound, the CC50 (ACHN; [1]) was over 25 µM, the activity at 10 µM (ACHN; [2]) was -5.35% and the GI50 (T-47D) was 0.64 µM. It also gave an IC (TGI) (T-47D; read-out: TGI) of 6.56 µM, an activity at 10 µM (T-47D; read-out: percent cell growth promotion) of -8.49% and a CC50 (T-47D; T-47D, 5 log dose, 48 h, read-out: LC50 (the source's name)) of over 25 µM. For the same compound, the GI50 (HOP-62; HOP-62, 5 log dose) was 2.06 µM, the IC (TGI) (HOP-62; HOP-62, 5 log dose) was 8.48 µM and the CC50 (HOP-62; HOP-62, 5 log dose, 48 h, read-out: LC50 (the source's name)) was over 25 µM. For the same compound, the activity at 10 µM (HOP-62; HOP-62, single dose 10 μM, read-out: percent cell growth promotion) was -17.1%, the GI50 (OVCAR-8; OVCAR-8, 5 log dose) was 3.61 µM and the IC (TGI) (OVCAR-8; OVCAR-8, 5 log dose) was 14.7 µM. It also gave a CC50 (OVCAR-8; OVCAR-8, 5 log dose, 48 h, read-out: LC50 (the source's name)) of over 25 µM, an activity at 10 µM (OVCAR-8; OVCAR-8, single dose 10 μM, read-out: percent cell growth promotion) of 3.02% and a GI50 (RPMI-8226; RPMI-8226, 5 log dose) of 1.48 µM. The IC (TGI) (RPMI-8226; RPMI-8226, 5 log dose) was 7.51 µM, the CC50 (RPMI-8226; RPMI-8226, 5 log dose, 48 h, read-out: LC50 (the source's name)) was over 25 µM and the activity at 10 µM (RPMI-8226; RPMI-8226, single dose 10 μM, read-out: percent cell growth promotion) was -28.1%. For the same compound, the GI50 (A549/ATCC; 5 log dose) was 1.93 µM, the IC (TGI) (A549/ATCC; 5 log dose) was 9.42 µM and the LC50 (concentration killing 50% of cells) (A549/ATCC; 5 log dose, 48 h) was over 25 µM. It also gave an activity at 10 µM (A549/ATCC; [2]) of 2.56%, a GI50 (NCI-H226; NCI-H226, 5 log dose) of 0.95 µM and an IC (TGI) (NCI-H226; NCI-H226, 5 log dose) of 6.82 µM. It also gave a CC50 (NCI-H226; NCI-H226, 5 log dose, 48 h, read-out: LC50 (the source's name)) of over 25 µM, an activity at 10 µM (NCI-H226; NCI-H226, single dose 10 μM, read-out: percent cell growth promotion) of -22.9% and a GI50 (SNB-19; SNB-19, 5 log dose) of 3.5 µM. The IC (TGI) (SNB-19; SNB-19, 5 log dose) was 13 µM, the CC50 (SNB-19; SNB-19, 5 log dose, 48 h, read-out: LC50 (the source's name)) was over 25 µM and the activity at 10 µM (SNB-19; SNB-19, single dose 10 μM, read-out: percent cell growth promotion) was 17.8%. It also gave a GI50 (UO-31; UO-31, 5 log dose) of 0.6 µM, an IC (TGI) (UO-31; UO-31, 5 log dose) of 5.28 µM and a CC50 (UO-31; UO-31, 5 log dose, 48 h, read-out: LC50 (the source's name)) of over 25 µM. It also gave an activity at 10 µM (UO-31; UO-31, single dose 10 μM, read-out: percent cell growth promotion) of -42.5%, a GI50 (MDA-MB 231/ATCC; MDA-MB-231) of 1.32 µM and an IC (TGI) (MDA-MB 231/ATCC; MDA-MB-231, read-out: TGI) of 6.32 µM. It also gave an activity at 10 µM (MDA-MB 231/ATCC; MDA-MB-231, read-out: percent cell growth promotion) of -27.1%, a CC50 (MDA-MB 231/ATCC; MDA-MB-231, MDA-MDA 231/ATCC, 5 log dose, 48 h, read-out: LC50 (the source's name)) of 19.7 µM and a GI50 (NCI-H522; NCI-H522, 5 log dose) of 0.32 µM. The IC (TGI) (NCI-H522; NCI-H522, 5 log dose) was 3.31 µM, the CC50 (NCI-H522; NCI-H522, 5 log dose, 48 h, read-out: LC50 (the source's name)) was 13.1 µM and the activity at 10 µM (NCI-H522; NCI-H522, single dose 10 μM, read-out: percent cell growth promotion) was -43.8%. It also gave a GI50 (MCF7; MCF7) of 0.93 µM, an IC (TGI) (MCF7; MCF7, read-out: TGI) of 6.4 µM and an activity at 10 µM (MCF7; MCF7, read-out: percent cell growth promotion) of -1.96%. It also gave a CC50 (MCF7; MCF7, 5 log dose, 48 h, read-out: LC50 (the source's name)) of 24.9 µM, an activity at 10 µM (full NCI 60 cell panel; mean over the panel, single dose 10 μM, read-out: Mean percent cell growth promotion) of -16% and an inhibition at 10 µM (full NCI 60 cell panel; full panel, read-out: mean growth inhibition) of 116%. For the same compound, the inhibition at 10 µM (full NCI 60 cell panel; read-out: cell growth inhibition against various cell lines) was over 90%, the GI50 (K-562; K-562, 5 log dose) was 1.49 µM and the IC (TGI) (K-562; K-562, 5 log dose) was 13.1 µM. For the same compound, the CC50 (K-562; K-562, 5 log dose, 48 h, read-out: LC50 (the source's name)) was over 25 µM, the activity at 10 µM (K-562; K-562, single dose 10 μM, read-out: percent cell growth promotion) was 2.2% and the GI50 (SF-295; SF-295, 5 log dose) was 1.94 µM. The IC (TGI) (SF-295; SF-295, 5 log dose) was 8.24 µM, the CC50 (SF-295; SF-295, 5 log dose, 48 h, read-out: LC50 (the source's name)) was over 25 µM and the activity at 10 µM (SF-295; SF-295, single dose 10 μM, read-out: percent cell growth promotion) was -22.6%. The GI50 (PC-3; PC-3, 5 log dose) was 1.19 µM, the IC (TGI) (PC-3; PC-3, 5 log dose) was 9.33 µM and the CC50 (PC-3; PC-3, 5 log dose, 48 h, read-out: LC50 (the source's name)) was over 25 µM. For the same compound, the activity at 10 µM (PC-3; PC-3, single dose 10 μM, read-out: percent cell growth promotion) was -13.6%, the GI50 (NCI/ADR-RES; 5 log dose) was 2.55 µM and the IC (TGI) (NCI/ADR-RES; 5 log dose) was over 25 µM. For the same compound, the CC50 (NCI/ADR-RES; [1]) was over 25 µM, the activity at 10 µM (NCI/ADR-RES; [2]) was -5.42% and the GI50 (HCC-2998; HCC-2998, 5 log dose) was 3.44 µM. The IC (TGI) (HCC-2998; HCC-2998, 5 log dose) was 8.79 µM, the LC50 (50% lethal concentration) (HCC-2998; HCC-2998, 5 log dose, 48 h) was 22.5 µM and the activity at 10 µM (HCC-2998; HCC-2998, single dose 10 μM, read-out: percent cell growth promotion) was 2.79%.
